The target of one assay is Tyk2 (Homo sapiens (Human), UniProt P29597). Description: pSTAT4 Cell Assay (MSD, NK92 cells). The assay is classed as cell-based.
The next assay addresses JH2 domain of human Tyk2 (Homo sapiens (Human), UniProt P29597). Description: JH2 Biochemical Assay (TR-FRET probe displacement). The assay is classed as binding. Background: TR-FRET usually uses a lanthanide donor and a delayed reading to cut background.
Where [1] appears, read: TR-FRET probe displacement, JH2 domain.
Where [2] appears, read: JH2 domain of human Tyk2, TR-FRET probe displacement.
The mark [3] stands for this setting: TR-FRET probe displacement, JH2 domain of human Tyk2.

Read-outs that look alike come from different tables or passages of the source.

JH2 domain of human Tyk2, sequence (P29597 575-876): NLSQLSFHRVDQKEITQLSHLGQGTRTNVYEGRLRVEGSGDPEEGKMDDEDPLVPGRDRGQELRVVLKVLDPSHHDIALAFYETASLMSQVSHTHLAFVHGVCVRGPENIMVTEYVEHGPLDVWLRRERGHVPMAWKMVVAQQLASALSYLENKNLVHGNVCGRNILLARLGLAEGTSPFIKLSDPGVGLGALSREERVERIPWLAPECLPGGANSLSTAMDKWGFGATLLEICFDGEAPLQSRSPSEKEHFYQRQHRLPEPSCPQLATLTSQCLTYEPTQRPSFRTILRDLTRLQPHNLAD
Tyk2, sequence (P29597 whole entry, the tested form may be a part): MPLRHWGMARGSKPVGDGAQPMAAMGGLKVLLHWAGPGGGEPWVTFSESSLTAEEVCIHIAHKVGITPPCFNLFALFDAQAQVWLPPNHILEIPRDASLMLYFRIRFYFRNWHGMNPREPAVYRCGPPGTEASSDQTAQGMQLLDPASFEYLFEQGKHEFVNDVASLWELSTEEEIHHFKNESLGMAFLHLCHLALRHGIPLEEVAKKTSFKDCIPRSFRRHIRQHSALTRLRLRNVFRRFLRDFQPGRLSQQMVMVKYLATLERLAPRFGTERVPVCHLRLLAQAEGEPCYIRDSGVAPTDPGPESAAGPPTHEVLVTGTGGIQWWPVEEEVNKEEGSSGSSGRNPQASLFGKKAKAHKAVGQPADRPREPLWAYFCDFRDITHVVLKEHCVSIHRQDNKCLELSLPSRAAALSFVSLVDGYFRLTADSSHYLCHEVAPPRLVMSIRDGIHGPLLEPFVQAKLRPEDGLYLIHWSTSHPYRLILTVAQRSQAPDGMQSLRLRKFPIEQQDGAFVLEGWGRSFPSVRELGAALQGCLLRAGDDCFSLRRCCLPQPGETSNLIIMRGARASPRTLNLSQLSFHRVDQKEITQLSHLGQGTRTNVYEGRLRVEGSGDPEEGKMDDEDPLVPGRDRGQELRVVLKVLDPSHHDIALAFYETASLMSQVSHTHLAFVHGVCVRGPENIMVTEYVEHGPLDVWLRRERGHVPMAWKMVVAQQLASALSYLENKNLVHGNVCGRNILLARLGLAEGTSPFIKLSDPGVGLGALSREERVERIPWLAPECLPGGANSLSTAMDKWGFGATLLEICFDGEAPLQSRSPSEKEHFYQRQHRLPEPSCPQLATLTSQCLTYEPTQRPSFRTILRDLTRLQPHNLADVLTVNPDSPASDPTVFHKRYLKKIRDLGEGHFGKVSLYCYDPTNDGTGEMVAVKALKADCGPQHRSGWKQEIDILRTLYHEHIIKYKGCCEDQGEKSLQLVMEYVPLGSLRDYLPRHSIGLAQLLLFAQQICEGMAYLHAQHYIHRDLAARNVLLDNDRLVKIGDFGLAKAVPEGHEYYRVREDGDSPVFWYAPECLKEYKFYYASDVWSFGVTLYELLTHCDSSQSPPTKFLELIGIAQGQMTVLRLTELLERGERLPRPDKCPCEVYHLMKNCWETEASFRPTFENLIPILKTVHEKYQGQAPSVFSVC

The IC50 is the concentration at which inhibition is half-maximal. As to `CC(=O)Nc1cc(Nc2cc(C(C)C)nc(C(C)(F)F)n2)c(-c2ccc3c(n2)OCC(C)(C)O3)cn1` [Example 822, N-(4-((2-(1,1-difluoroethyl)-6-isopropylpyrimidin-4-yl)amino)-5-(2,2-dimethyl-2,3-dihydro-[1,4]dioxino[2,3-b]pyridin-6-yl)pyridin-2-yl)acetamide], the IC50 at Tyk2 and on JH2 domain of human Tyk2 (setting [1]) was at most 10 nM in each case.
On to `CC(=O)Nc1cc(Nc2cc(C)nc(C(C)(C)F)n2)c(-c2cn3cnnc3cn2)cn1` [Example 532, N-(5-([1,2,4]triazolo[4,3-a]pyrazin-6-yl)-4-((2-(2-fluoropropan-2-yl)-6-methylpyrimidin-4-yl)amino)pyridin-2-yl)acetamide], for which the IC50 against Tyk2 (MSD) was 100 to 1000 nM; on JH2 domain of human Tyk2 (setting [2]) it was at most 10 nM.
Regarding `CC(=O)Nc1cc(Nc2ccnc(C(C)(F)F)n2)c(-c2cnn(CCN3CCOCC3)n2)cn1` [Example 778, N-(4-((2-(1,1-difluoroethyl)pyrimidin-4-yl)amino)-5-(2-(2-morpholinoethyl)-2H-1,2,3-triazol-4-yl)pyridin-2-yl)acetamide], the IC50 is 10 to 100 nM on Tyk2 and at most 10 nM on JH2 domain of human Tyk2 (setting [1]).
As to `CC(=O)Nc1cc(Nc2cc(C)nc(C(C)(F)F)n2)c(OC[C@@H]2CCN(C3CC3)C2)cn1` [Example 494, (R)-N-(5-((1-cyclopropylpyrrolidin-3-yl)methoxy)-4-((2-(1,1-difluoroethyl)-6-methylpyrimidin-4-yl)amino)pyridin-2-yl)acetamide], the results for the IC50 at Tyk2 (MSD) and at JH2 domain of human Tyk2 (setting [2]) were 10 to 100 nM and at most 10 nM, respectively.
For `COc1cc(-c2cnc(NC(C)=O)cc2Nc2cc(C)nc(C(C)(F)F)n2)ncn1` [Example 194, N-(4-((2-(1,1-difluoroethyl)-6-methylpyrimidin-4-yl)amino)-5-(6-methoxypyrimidin-4-yl)pyridin-2-yl)acetamide], the half-maximal inhibitory concentration (IC50) on Tyk2 (MSD) and at JH2 domain of human Tyk2 (setting [3]) was at most 10 nM in each case.
`COc1cnn(-c2cnc(NC(C)=O)cc2Nc2cc(C)nc(C(C)(F)F)n2)c1` [Example 731, N-(4-((2-(1,1-difluoroethyl)-6-methylpyrimidin-4-yl)amino)-5-(4-methoxy-1H-pyrazol-1-yl)pyridin-2-yl)acetamide]: the 50% inhibitory concentration (IC50) was 10 to 100 nM against Tyk2 (MSD) and at most 10 nM at JH2 domain of human Tyk2 (setting [2]).
`CCOc1cnc(NC(C)=O)cc1Nc1cc(-c2cnn(C(F)F)c2)nc(C(C)(F)F)n1` [Example 303, N-(4-((2-(1,1-difluoroethyl)-6-(1-(difluoromethyl)-1H-pyrazol-4-yl)pyrimidin-4-yl)amino)-5-ethoxypyridin-2-yl)acetamide]: the IC50 against Tyk2 (MSD) was 10 to 100 nM; at JH2 domain of human Tyk2 (setting [3]) it was at most 10 nM.
On the same counts, the results for `CC(=O)Nc1cc(Nc2cc(C)nc(C(C)(F)F)n2)c(OC[C@@H]2CCCO2)cn1` (single isomer, unassigned) [Example 293, (S)-N-(4-((2-(1,1-difluoroethyl)-6-methylpyrimidin-4-yl)amino)-5-((tetrahydrofuran-2-yl)methoxy)pyridin-2-yl)acetamide or (R)-N-(4-((2-(1,1-difluoroethyl)-6-methylpyrimidin-4-yl)amino)-5-((tetrahydrofuran-2-yl)methoxy)pyridin-2-yl)acetamide] are 10 to 100 nM and at most 10 nM.
Taken in the same sequence, the figures for `COCc1csc(-c2cnc(NC(C)=O)cc2Nc2cc(C)nc(C(C)(F)F)n2)n1` [Example 233, N-(4-((2-(1,1-difluoroethyl)-6-methylpyrimidin-4-yl)amino)-5-(4-(methoxymethyl)thiazol-2-yl)pyridin-2-yl)acetamide] were at most 10 nM and at most 10 nM.
On the same counts, the results for `CC(=O)Nc1cc(Nc2cc(C)nc(C(C)(F)F)n2)c([C@H]2CCCO2)cn1` (single isomer, unassigned) [Example 278, (R)-N-(4-((2-(1,1-difluoroethyl)-6-methylpyrimidin-4-yl)amino)-5-(tetrahydrofuran-2-yl)pyridin-2-yl)acetamide or (S)—N-(4-((2-(1,1-difluoroethyl)-6-methylpyrimidin-4-yl)amino)-5-(tetrahydrofuran-2-yl)pyridin-2-yl)acetamide] are at least 1000 nM and 10 to 100 nM.
For the compound `C=C(F)c1cncc(Nc2cc(NC(C)=O)ncc2OCCOC)n1` [Example 90, N-(4-((6-(1-fluorovinyl)pyrazin-2-yl)amino)-5-(2-methoxyethoxy)pyridin-2-yl)acetamide], the figures for the IC50 against Tyk2 (MSD) and on JH2 domain of human Tyk2 (setting [3]) were 100 to 1000 nM and at most 10 nM, respectively.
Take `COc1cnc(NC(C)=O)cc1Nc1cc(-c2ccncc2)nc(C(C)(F)F)n1` [Example 382, N-(4-((2-(1,1-difluoroethyl)-6-(pyridin-4-yl)pyrimidin-4-yl)amino)-5-methoxypyridin-2-yl)acetamide]: the IC50 against Tyk2 (MSD) and on JH2 domain of human Tyk2 (setting [2]) was 10 to 100 nM throughout.
`CC(=O)Nc1cc(Nc2ccnc(C(C)(F)F)n2)c(-c2ccc(COC(F)F)cn2)cn1` [Example 265, N-(4′-((2-(1,1-difluoroethyl)pyrimidin-4-yl)amino)-5-((difluoromethoxy)methyl)-[2,3′-bipyridin]-6′-yl)acetamide]: the concentration for half-maximal inhibition (IC50) against Tyk2 (MSD) and at JH2 domain of human Tyk2 (setting [3]) was at most 10 nM in each case.
On to `CCc1cc(Nc2cc(NC(C)=O)ncc2-c2cnc(CN(C)C)cn2)nc(C(C)(F)F)n1` [Example 895, N-(4-((2-(1,1-difluoroethyl)-6-ethylpyrimidin-4-yl)amino)-5-(5-((dimethylamino)methyl)pyrazin-2-yl)pyridin-2-yl)acetamide], for which the IC50 on Tyk2 and on JH2 domain of human Tyk2 (setting [1]) was at most 10 nM in each case.
In the case of `CC(=O)Nc1cc(Nc2ccnc(C(C)(F)F)n2)c(-c2cnc(C3CC3)cn2)cn1` [Example 694, N-(5-(5-cyclopropylpyrazin-2-yl)-4-((2-(1,1-difluoroethyl)pyrimidin-4-yl)amino)pyridin-2-yl)acetamide], the IC50 was 10 to 100 nM against Tyk2 (MSD) and at most 10 nM on JH2 domain of human Tyk2 (setting [2]).
On the same counts, the results for `COc1cnc(NC(C)=O)cc1Nc1cc(-c2cn(C)nc2C(F)(F)F)nc(C(C)(F)F)n1` [Example 395, N-(4-((2-(1,1-difluoroethyl)-6-(1-methyl-3-(trifluoromethyl)-1H-pyrazol-4-yl)pyrimidin-4-yl)amino)-5-methoxypyridin-2-yl)acetamide] are 100 to 1000 nM and at most 10 nM.
On the same counts, the results for `CC(=O)Nc1cc(Nc2cc(C)nc(C(C)(F)F)n2)c(-c2cccc(C3CN(C)CCO3)n2)cn1` (stereo not drawn) [Example 640, N-(4′-((2-(1,1-difluoroethyl)-6-methylpyrimidin-4-yl)amino)-6-(4-methylmorpholin-2-yl)-[2,3′-bipyridin]-6′-yl)acetamide] are at most 10 nM and at most 10 nM.
For `CCOc1cnc(NC(C)=O)cc1Nc1cc(-c2ccc(CC)nc2)nc(C(C)(F)F)n1` [Example 368, N-(4-((2-(1,1-difluoroethyl)-6-(6-ethylpyridin-3-yl)pyrimidin-4-yl)amino)-5-ethoxypyridin-2-yl)acetamide], the IC50 against Tyk2 (MSD) and at JH2 domain of human Tyk2 (setting [3]) was at most 10 nM each time.
Consider `CC(=O)Nc1cc(Nc2cc(C)nc(C(C)(F)F)n2)c(OCc2ccc(C#N)o2)cn1` [Example 333, N-(5-((5-cyanofuran-2-yl)methoxy)-4-((2-(1,1-difluoroethyl)-6-methylpyrimidin-4-yl)amino)pyridin-2-yl)acetamide], for which the results for the IC50 on Tyk2 (MSD) and on JH2 domain of human Tyk2 (setting [3]) were 10 to 100 nM and at most 10 nM, respectively.
On the same counts, the results for `CCOc1cnc(NC(C)=O)cc1Nc1cc(OC2CC3(COC3)C2)nc(C(C)(F)F)n1` [Example 297, N-(4-((6-((2-oxaspiro[3.3]heptan-6-yl)oxy)-2-(1,1-difluoroethyl)pyrimidin-4-yl)amino)-5-ethoxypyridin-2-yl)acetamide] are at most 10 nM and at most 10 nM.
Taken in the same sequence, the figures for `COc1nccc(-c2cnc(NC(C)=O)cc2Nc2cc(C)nc(C(C)(C)F)n2)n1` [Example 181, N-(4-((2-(2-fluoropropan-2-yl)-6-methylpyrimidin-4-yl)amino)-5-(2-methoxypyrimidin-4-yl)pyridin-2-yl)acetamide] were at most 10 nM and at most 10 nM.
Turning to `CCc1cc(Nc2cc(NC(C)=O)ncc2-c2ccc(F)cn2)nc(C(C)(F)F)n1` [Example 582, N-(4′-((2-(1,1-difluoroethyl)-6-ethylpyrimidin-4-yl)amino)-5-fluorO[2,3′-bipyridin]-6′-yl)acetamide], the IC50 against Tyk2 (MSD) and at JH2 domain of human Tyk2 (setting [2]) was at most 10 nM in each case.
As to `CCc1cc(Nc2cc(NC(C)=O)ncc2-c2ncc(OC(F)F)cn2)nc(C(C)(F)F)n1` [Example 848, N-(4-((2-(1,1-difluoroethyl)-6-ethylpyrimidin-4-yl)amino)-5-(5-(difluoromethoxy)pyrimidin-2-yl)pyridin-2-yl)acetamide], the IC50 against Tyk2 and on JH2 domain of human Tyk2 (setting [1]) was at most 10 nM in each case.
As for `CC(=O)Nc1cc(Nc2cncc(C(C)(F)F)n2)c(-c2ncc(F)cn2)cn1` [Example 188, N-(4-((6-(1,1-difluoroethyl)pyrazin-2-yl)amino)-5-(5-fluoropyrimidin-2-yl)pyridin-2-yl)acetamide], the results for the IC50 against Tyk2 (MSD) and on JH2 domain of human Tyk2 (setting [3]) were 10 to 100 nM and at most 10 nM, respectively.
On to `CCc1cc(Nc2cc(NC(C)=O)ncc2F)nc(C(C)(F)F)n1` [Example 816, N-(4-((2-(1,1-difluoroethyl)-6-ethylpyrimidin-4-yl)amino)-5-fluoropyridin-2-yl)acetamide], for which the IC50 was 100 to 1000 nM against Tyk2 and at most 10 nM at JH2 domain of human Tyk2 (setting [1]).
Consider `CC(=O)Nc1cc(Nc2ccnc(C(C)(F)F)n2)c(-c2cncc(OC(F)F)n2)cn1` [Example 689, N-(4-((2-(1,1-difluoroethyl)pyrimidin-4-yl)amino)-5-(6-(difluoromethoxy)pyrazin-2-yl)pyridin-2-yl)acetamide], for which the IC50 was at least 1000 nM on Tyk2 (MSD) and 10 to 100 nM at JH2 domain of human Tyk2 (setting [2]).
In the case of `[2H]C([2H])([2H])C(=O)Nc1cc(Nc2cc(C)nc(C(C)(F)F)n2)c(-c2ccc(OC)nn2)cn1` [Example 213, N-(4-((2-(1,1-difluoroethyl)-6-methylpyrimidin-4-yl)amino)-5-(6-methoxypyridazin-3-yl)pyridin-2-yl)acetamide-2,2,2-d3], the IC50 against Tyk2 (MSD) and on JH2 domain of human Tyk2 (setting [3]) was at most 10 nM in each case.

These data come from patent US20260028365A1 (BIOGEN MA INC., priority 2022, published 2026).
